Experimental data: Sander's compilation of Henry's law constants (doi:10.1021/je025545i)

Assay: Henry solubility constant Hcp at 298.15 K (mol/(m3 Pa))
Conditions: reference: Destaillats and Charles (2002)

SMILES | Henry solubility constant Hcp
Fc1c(F)c(F)c(CO/N=C/c2ccccc2)c(F)c1F [PFBHA-benzaldehyde] | 0.005
CC/C(C)=N\OCc1c(F)c(F)c(F)c(F)c1F [PFBHA-butanone] | 0.0047
C/C=C/C=N/OCc1c(F)c(F)c(F)c(F)c1F [PFBHA-crotonaldehyde] | 0.0068
CCCCCCCCC/C=N/OCc1c(F)c(F)c(F)c(F)c1F [PFBHA-decanal] | 0.024
CC=NOCc1c(F)c(F)c(F)c(F)c1F [PFBHA-ethanal] | 0.019
Fc1c(F)c(F)c(CON=CC=NOCc2c(F)c(F)c(F)c(F)c2F)c(F)c1F [PFBHA-ethanedial] | 0.016
CCCCC/C=N/OCc1c(F)c(F)c(F)c(F)c1F [PFBHA-hexanal] | 0.0058
C=NOCc1c(F)c(F)c(F)c(F)c1F [PFBHA-methanal] | 0.016
CCCCCCC/C=N/OCc1c(F)c(F)c(F)c(F)c1F [PFBHA-octanal] | 0.0079
CC(C)=NOCc1c(F)c(F)c(F)c(F)c1F [PFBHA-propanone] | 0.011
C=C/C=N/OCc1c(F)c(F)c(F)c(F)c1F [PFBHA-propenal] | 0.0095
c1ccc(-c2ccccc2)cc1 [biphenyl] | 0.034
Cc1ccccc1 [methylbenzene] | 0.002
c1ccc2ccccc2c1 [naphthalene] | 0.024
